# Key:
# [1] = target: T1, recombinant human FLAP protein (Homo sapiens, UniProt P20292); assay: FLAP binding assay (SPA, displacement of [125I]L-691,831); details: membranes of sf9 cells expressing human FLAP, [125I]L-691,831 probe; read-out: hFLAP binding IC50
# T1 construct: made in house; host or cells: Sf9 insect cells (membrane fraction, 100,000 x g pellet)
# T1 sequence (P20292 1-161): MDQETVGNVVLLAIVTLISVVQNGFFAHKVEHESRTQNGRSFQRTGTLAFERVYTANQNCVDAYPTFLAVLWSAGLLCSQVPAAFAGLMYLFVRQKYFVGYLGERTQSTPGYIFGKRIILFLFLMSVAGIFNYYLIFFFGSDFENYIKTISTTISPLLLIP
# Summary of the method: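 Membranes from sf9 cells expressing human FLAP (5 μg/well) were bound to WGA SPA beads (200 μg/well). Nonspecific binding was defined with 10 μM unlabelled L-691,831.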
# [2] = test system: synthesis of LTB4 in human whole blood; assay: Human whole blood LTB4 production inhibition assay; assay type: cell-based; details: heparinized human whole blood, calcimycin 20 μM, plasma LTB4; read-out: HuWB IC50
# Summary of the method: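 Heparinized human whole blood preincubated with compound 15 min at 37 °C, then stimulated with calcimycin (20 μM final) for 30 min at 37 °C. Plasma LTB4 measured after low-speed centrifugation by antibody-based homogeneous time-resolved fluorescence.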
IC50 [1],IC50 [2],Structure (SMILES)
5.1 nM,217 nM,"Nc1ncc(-c2ccc(C3(C(=O)Nc4ccncc4)CCC3)cc2)cn1 [Example 177, 1-[4-(2-aminopyrimidin-5-yl)phenyl]-N-(pyridin-4-yl)cyclobutanecarboxamide]"
35.5 nM,557 nM,"Cc1noc(-c2ccc(NC(=O)C3(c4ccc(-c5cnc(N)nc5)cc4)CCOCC3)nc2)n1 [Example 178, 4-[4-(2-aminopyrimidin-5-yl)phenyl]-N-[5-(3-methyl-1,2,4-oxadiazol-5-yl)pyridin-2-yl]tetrahydro-2H-pyran-4-carboxamide]"
24.7 nM,388 nM,"N#Cc1ccc(NC(=O)C2(c3ccc(-c4cnc(N)c(CO)c4)cc3)CCOCC2)nc1 [Example 179, 4-{4-[6-amino-5-(hydroxymethyl)pyridin-3-yl]phenyl}-N-(5-cyanopyridin-2-yl)tetrahydro-2H-pyran-4-carboxamide]"
6.3 nM,402 nM,"CC(C)C(C)(C(=O)Nc1cccnc1)c1ccc(-c2cnc3[nH]ccc3c2)cc1 (stereo not drawn) [Example 180, 2,3-dimethyl-N-(pyridin-3-yl)-2-[4-(1H-pyrrolo[2,3-b]pyridin-5-yl)phenyl]butanamide]"
32.5 nM,1060 nM,"Cc1nc(-c2ccc(NC(=O)C3(c4ccc(-c5cnc(N)c(C)n5)cc4)CCOCC3)nc2)cs1 [Example 182, 4-[4-(5-amino-6-methylpyrazin-2-yl)phenyl]-N-[5-(2-methyl-1,3-thiazol-4-yl)pyridin-2-yl]tetrahydro-2H-pyran-4-carboxamide]"
51.6 nM,480 nM,"Nc1ncc(-c2ccc(C3(C(=O)Nc4cccnc4)CCC3)cc2)cn1 [Example 183, 1-[4-(2-aminopyrimidin-5-yl)phenyl]-N-(pyridin-3-yl)cyclobutanecarboxamide]"
39 nM,1470 nM,"CC(C)C(C)(C(=O)Nc1cccnc1)c1ccc(-c2cnc(N)nc2)cc1 (stereo not drawn) [Example 184, 2-[4-(2-aminopyrimidin-5-yl)phenyl]-2,3-dimethyl-N-(pyridin-3-yl)butanamide]"
17.5 nM,955 nM,"Nc1ncc(-c2ccc(C3(C(=O)Nc4ccncn4)CCC3)cc2)cn1 [Example 185, 1-[4-(2-aminopyrimidin-5-yl)phenyl]-N-(pyrimidin-4-yl)cyclobutanecarboxamide]"
3.2 nM,334 nM,"Cc1cc(NC(=O)C2(c3ccc(-c4cnc(N)nc4)cc3)CCC2)ccn1 [Example 186, 1-[4-(2-aminopyrimidin-5-yl)phenyl]-N-(2-methylpyridin-4-yl)cyclobutanecarboxamide]"
5.1 nM,517 nM,"COc1cc(NC(=O)C2(c3ccc(-c4cnc(N)nc4)cc3)CCC2)ccn1 [Example 187, 1-[4-(2-aminopyrimidin-5-yl)phenyl]-N-(2-methoxypyridin-4-yl)cyclobutanecarboxamide]"
1.65 nM,130 nM,"O=C(Nc1ccncn1)C1(c2ccc(-c3cnc4[nH]ccc4c3)cc2)CCC1 [Example 188, N-(pyrimidin-4-yl)-1-[4-(1H-pyrrolo[2,3-b]pyridin-5-yl)phenyl]cyclobutanecarboxamide]"
1.45 nM,190 nM,"Cc1cc(NC(=O)C2(c3ccc(-c4cnc5[nH]ccc5c4)cc3)CCC2)ccn1 [Example 189, N-(2-methylpyridin-4-yl)-1-[4-(1H-pyrrolo[2,3-b]pyridin-5-yl)phenyl]cyclobutanecarboxamide]"
2.25 nM,149 nM,"COc1cc(NC(=O)C2(c3ccc(-c4cnc5[nH]ccc5c4)cc3)CCC2)ccn1 [Example 190, N-(2-methoxypyridin-4-yl)-1-[4-(1H-pyrrolo[2,3-b]pyridin-5-yl)phenyl]cyclobutanecarboxamide]"
27.5 nM,1950 nM,"Cc1nc(-c2ccc(NC(=O)C3(c4ccc(-c5ccc(N)nc5)cc4)CCOCC3)nc2)cs1 [Example 191, 4-[4-(6-aminopyridin-3-yl)phenyl]-N-[5-(2-methyl-1,3-thiazol-4-yl)pyridin-2-yl]tetrahydro-2H-pyran-4-carboxamide]"
32 nM,861 nM,"CNc1ncc(-c2ccc(C3(C(=O)Nc4cccnc4)CCC3)cc2)cn1 [Example 192, 1-{4-[2-(methylamino)pyrimidin-5-yl]phenyl}-N-(pyridin-3-yl)cyclobutanecarboxamide]"
10.1 nM,1650 nM,"CNc1ncc(-c2ccc(C3(C(=O)Nc4ccc(-c5csc(C)n5)cn4)CCOCC3)cc2)cn1 [Example 193, 4-{4-[2-(methylamino)pyrimidin-5-yl]phenyl}-N-[5-(2-methyl-1,3-thiazol-4-yl)pyridin-2-yl]tetrahydro-2H-pyran-4-carboxamide]"
19.2 nM,577 nM,"Nc1ncc(-c2ccc(C3(C(=O)Nc4ccc(Oc5ccccc5)cn4)CCC3)cc2)cn1 [Example 194, 1-[4-(2-aminopyrimidin-5-yl)phenyl]-N-(5-phenoxypyridin-2-yl)cyclobutanecarboxamide]"

IC50 [1],IC50 [2],Structure (SMILES)
2.7 nM,174 nM,"N#Cc1ccc(NC(=O)C2(c3ccc(-c4cnc(N)nc4)cc3)CCC2)cc1Cl [Example 195, 1-[4-(2-aminopyrimidin-5-yl)phenyl]-N-(3-chloro-4-cyanophenyl)cyclobutane-carboxamide]"
50.7 nM,2910 nM,"Cc1cnccc1NC(=O)C1(c2ccc(-c3cnc(N)nc3)cc2)CCC1 [Example 196, 1-[4-(2-aminopyrimidin-5-yl)phenyl]-N-(3-methylpyridin-4-yl)cyclobutanecarboxamide]"
27 nM,2440 nM,"Cc1nc(-c2ccc(NC(=O)C3(c4ccc(-c5cnc6[nH]cnc6c5)cc4)CCOCC3)nc2)cs1 [Example 197, 4-[4-(3H-imidazo[4,5-b]pyridin-6-yl)phenyl]-N-[5-(2-methyl-1,3-thiazol-4-yl)pyridin-2-yl]tetrahydro-2H-pyran-4-carboxamide]"
3.75 nM,180 nM,"O=C(Nc1ccc(Oc2ccccc2)cn1)C1(c2ccc(-c3cnc4[nH]ccc4c3)cc2)CCC1 [Example 198, N-(5-phenoxypyridin-2-yl)-1-[4-(1H-pyrrolo[2,3-b]pyridin-5-yl)phenyl]cyclobutane-carboxamide]"
5.7 nM,1380 nM,"COc1cc(NC(=O)C2(c3ccc(-c4cnc(N)nc4)cc3)CCC2)ncn1 [Example 199, 1-[4-(2-aminopyrimidin-5-yl)phenyl]-N-(6-methoxypyrimidin-4-yl)cyclobutanecarboxamide]"
19 nM,2010 nM,"Nc1ncc(-c2ccc(C3(C(=O)Nc4nccs4)CCC3)cc2)cn1 [Example 200, 1-[4-(2-aminopyrimidin-5-yl)phenyl]-N-(1,3-thiazol-2-yl)cyclobutanaecarboxamide]"
3.75 nM,224 nM,"Nc1ncc(-c2ccc(C3(C(=O)Nc4ccc(-c5ccccc5)cn4)CCC3)cc2)cn1 [Example 201, 1-[4-(2-aminopyrimidin-5-yl)phenyl]-N-(5-phenylpyridin-2-yl)cyclobutanecarboxamide]"
13.7 nM,3250 nM,"Nc1ncc(-c2ccc(C3(C(=O)Nc4ccccc4)CCC3)cc2)cn1 [Example 203, 1-[4-(2-aminopyrimidin-5-yl)phenyl]-N-phenylcyclobutanecarboxamide]"
2.8 nM,415 nM,"Nc1ncc(-c2ccc(C3(C(=O)Nc4ccc5ncsc5c4)CCC3)cc2)cn1 [Example 204, 1-[4-(2-aminopyrimidin-5-yl)phenyl]-N-(1,3-benzothiazol-6-yl)cyclobutanecarboxamide]"
8.4 nM,922 nM,"Cc1csc(NC(=O)C2(c3ccc(-c4cnc(N)nc4)cc3)CCC2)n1 [Example 205, 1-[4-(2-aminopyrimidin-5-yl)phenyl]-N-(4-methyl-1,3-thiazol-2-yl)cyclobutanecarboxamide]"
3.35 nM,459 nM,"COc1ccc(-c2ccc(NC(=O)C3(c4ccc(-c5cnc(N)nc5)cc4)CCC3)nc2)cn1 [Example 208, 1-[4-(2-aminopyrimidin-5-yl)phenyl]-N-(6'-methoxy-3,3'-bipyridin-6-yl)cyclobutanecarboxamide]"
5.1 nM,792 nM,"Cc1ccc(NC(=O)C2(c3ccc(-c4cnc(N)nc4)cc3)CCC2)nc1 [Example 210, 1-[4-(2-aminopyrimidin-5-yl)phenyl]-N-(5-methylpyridin-2-yl)cyclobutanecarboxamide]"
12.6 nM,333 nM,"COc1ccc(NC(=O)C2(c3ccc(-c4cnc(N)nc4)cc3)CCC2)cn1 [Example 213, 1-[4-(2-aminopyrimidin-5-yl)phenyl]-N-(6-methoxypyridin-3-yl)cyclobutanecarboxamide]"
24 nM,1070 nM,"Nc1ncc(-c2ccc(C3(C(=O)Nc4cnccn4)CCC3)cc2)cn1 [Example 214, 1-[4-(2-aminopyrimidin-5-yl)phenyl]-N-(pyrazin-2-yl)cyclobutanecarboxamide]"
17.7 nM,706 nM,"Nc1ncc(-c2ccc(C3(C(=O)Nc4ccnnc4)CCC3)cc2)cn1 [Example 215, 1-[4-(2-aminopyrimidin-5-yl)phenyl]-N-(pyridazin-4-yl)cyclobutanecarboxamide]"
91.5 nM,3040 nM,"Cn1ccc(NC(=O)C2(c3ccc(-c4cnc(N)nc4)cc3)CCC2)cc1=O [Example 216, 1-[4-(2-aminopyrimidin-5-yl)phenyl]-N-(1-methyl-2-oxo-1,2-dihydropyridin-4-yl)cyclobutanecarboxamide]"
